The term IC50 denotes the concentration needed to halve the response being measured.

The structures appear in SMILES notation.

In the test the target is T1, human SMYD3 (Homo sapiens, UniProt Q9H7B4).
T1 construct: Expressed full-length human His-tagged SMYD3 protein was purified from cell paste; His6 (cleaved yes); TEV and SUMO cleavage sites (cleaved yes); made in house; host or cells: E. coli BL21 codonplus RIL
T1 sequence (Q9H7B4 1-428): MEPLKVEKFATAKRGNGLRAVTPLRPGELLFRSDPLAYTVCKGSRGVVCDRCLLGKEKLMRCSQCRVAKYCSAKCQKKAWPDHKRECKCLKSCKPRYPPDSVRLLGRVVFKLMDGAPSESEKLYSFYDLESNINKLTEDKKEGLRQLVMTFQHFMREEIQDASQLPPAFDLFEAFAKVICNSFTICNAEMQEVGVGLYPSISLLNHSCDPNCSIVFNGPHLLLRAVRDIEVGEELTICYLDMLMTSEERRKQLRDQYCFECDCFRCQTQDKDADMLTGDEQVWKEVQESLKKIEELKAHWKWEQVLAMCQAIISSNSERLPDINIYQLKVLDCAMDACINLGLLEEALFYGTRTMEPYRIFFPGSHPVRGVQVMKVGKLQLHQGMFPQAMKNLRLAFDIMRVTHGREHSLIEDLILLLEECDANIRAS
Description: SMYD3 Biochemical Assay (3H-SAM, MEKK2 protein substrate, SPA). To be noted: Table 1; average of n = 1 to n = 50; read-out: SMYD3 Biochem IC50. An excerpt: S-adenosylmethionine (SAM), S-adenosylhomocysteine (SAH), Tris, Tween20, dimethylsulfoxide (DMSO), bovine skin gelatin (BSG), and Tris(2-carboxyethyl)phosphine hydrochloride solution (TCEP) were purchased from Sigma-Aldrich at the highest level of purity possible. ^3H-SAM was purchase from American Radiolabeled Chemicals with a specific activity of 80 Ci/mmol. 384-well opaque white OptiPlates and SPA beads (Perkin Elmer, catalog # RPNQ0013) were purchased from PerkinElmer.
N-terminally GST-tagged MEKK2 (MAP3K2) protein corresponding to reference sequence AAF63496.3 was purchased from Life Technologies (catalog # PV4010). This protein was expressed in High Five insect cells and purified to >85% purity. Protein identity was confirmed by MS/MS analysis after proteolytic digestion. The protein sequence used was:
Full-length human SMYD3 isoform 1 (BAB86333) was inserted into a modified pET21b plasmid containing a His6 tag and TEV and SUMO cleavage sites. Because two common variants of SMYD3 exist in the population, site directed mutagenesis was subsequently performed to change amino acid 13 from an asparagine to a lysine, resulting in plasmid pEPZ533. A lysine at position 13 conforms to the more commonly occurring sequence (NP_001161212).
E. coli (BL21 codonplus RIL strain, Stratagene) were transformed with plasmid pEPZ553 by mixing competent cells and plasmid DNA and incubating on ice for 30 minutes followed by heat shock at 42° C. for 1 minute and cooling on ice for 2 minutes. Transformed cells were grown and selected on LB agar with 100 μg/mL ampicillin and 17 μg/mL chloramphenicol at 37° C. overnight. A single clone was used to inoculate 200 mL of LB medium with 100 μg/mL ampicillin and 17 μg/mL chloramphenicol and incubated at 37° C. on an orbital shaker at 180 rpm. Once in log growth, the culture was diluted 1:100 into 2 L of LB medium and grown until OD600 was about 0.3 after which the culture was incubated at 15° C. and 160 rpm. Once OD600 reached about 0.4, IPTG was added to a final concentration of 0.1 mM and the cells were grown overnight at 15° C. and 160 rpm. Cells were harvested by centrifugation at 8000 rpm, for 4 minutes at 4° C. and stored at −80° C. for purification.
Expressed full-length human His-tagged SMYD3 protein was purified from cell paste by Nickel affinity chromatography after equilibration of the resin with Buffer A (25 mM Tris, 200 mM NaCl, 5% glycerol, 5 mM β-mercaptoethanol, pH7.8). The column was washed with Buffer B (Buffer A plus 20 mM imidazole) and His-tagged SMYD3 was eluted with Buffer C (Buffer A plus 300 mM imidazole). The His tag, TEV and SUMO cleavage sites were removed generating native SMYD3 by addition of ULP1 protein at a ratio of 1:200 (ULP1:SMYD3). Imidazole was removed by dialysis overnight in Buffer A. The dialyzed solution was applied to a second Nickel column and the native SMYD3 protein was collected from the column flow-through. The flow-through was dialyzed in Buffer D (25 mM Tris, 5% glycerol, 5 mM β-mercaptoethanol, 50 mM NaCl, pH7.8) and ULP1 was removed using a Q sepharose fast flow column. SMYD3 was eluted in Buffer A and further purified using an S200 size-exclusion column equilibrated with Buffer A. SMYD3 was concentrated to 2 mg/mL with a final purity of 89%.
The assays were all performed in a buffer consisting of 25 mM Tris-Cl pH 8.0, 1 mM TCEP, 0.005% BSG, and 0.005% Tween 20, prepared on the day of use. Compounds in 100% DMSO (1 ul) were spotted into a 384-well white opaque OptiPlate using a Bravo automated liquid handling platform outfitted with a 384-channel head (Agilent Technologies). DMSO (1 ul) was added to Columns 11, 12, 23, 24, rows A-H for the maximum signal control and 1 ul of SAH, a known product and inhibitor of SMYD3, was added to columns 11, 12, 23, 24, rows I-P for the minimum signal control. A cocktail (40 ul) containing the SMYD3 enzyme was added by Multidrop Combi (Thermo-Fisher). […]
Take `CC1CC(NC(=O)c2cc(C3CC3)on2)C(=O)N1c1ccccc1` (centres unmarked) [compound 11, 5-cyclopropyl-N-(5-methyl-2-oxo-1-phenylpyrrolidin-3-yl)isoxazole-3-carboxamide]: the IC50 amounted to 78.1 µM.

Take `CC(=O)Nc1ccc(S(=O)(=O)N2CC[C@@H](NC(=O)c3cc(C4CC4)on3)C2)cc1` [compound 2, (R)-N-(1-((4-acetamido-phenyl)sulfonyl)pyrrolidin-3-yl)-5-cyclopropyl-isoxazole-3-carboxamide]: the IC50 is over 100 µM. In the case of `CN1CCC(NC(=O)c2cc(C3CC3)on2)C1c1ccc(F)c(F)c1` (centres unmarked) [compound 9, 5-cyclopropyl-N-(2-(3,4-difluorophenyl)-1-methylpyrrolidin-3-yl)isoxazole-3-carboxamide], the IC50 stood at 67.2 µM. Next, `CN1CCC(NC(=O)c2cc(C3CC3)on2)C1c1ccc(F)cc1` (centres unmarked) [compound 13, 5-cyclopropyl-N-(2-(4-fluorophenyl)-1-methylpyrrolidin-3-yl)isoxazole-3-carboxamide]: 51.9 µM.

With `O=C(N[C@H]1CCNC1)c1cc(C2CC2)on1` [compound 3, (S)-5-cyclopropyl-N-(pyrrolidin-3-yl)isoxazole-3-carboxamide], the IC50 was 80.3 µM.

Regarding `NCCCS(=O)(=O)N1CC[C@H](NC(=O)c2cc(C3CC3)on2)C1` [compound 35, (S)-N-(1-((3-amino-propyl)sulfonyl)pyrrolidin-3-yl)-5-cyclopropyl-isoxazole-3-carboxamide], the IC50 stood at 4.43 µM. As for `CN1C[C@H](NC(=O)c2cc(C3CC3)on2)[C@H](c2ccccc2)C1` (racemic) [compound 17, (±)-cis-5-cyclopropyl-N-((1-methyl-4-phenylpyrrolidin-3-yl)isoxazole-3-carboxamide], the figure is 56.2 µM; as for `CN1CCC(NC(=O)c2cc(C3CC3)on2)C1c1ccccc1` (centres unmarked) [compound 5, 5-cyclopropyl-N-(1-methyl-2-phenyl-pyrrolidin-3-yl)isoxazole-3-carboxamide], 55.1 µM; as for `CN1CCC(NC(=O)c2cc(C3CC3)on2)C1` (centres unmarked) [compound 29, 5-cyclopropyl-N-(1-methylpyrrolidin-3-yl)isoxazole-3-carboxamide], 84 µM. With `N[C@H]1CC[C@H](C(=O)N2CC[C@H](NC(=O)c3cc(C4CC4)on3)C2)CC1` [compound 33, N-((S)-1-((1r,4s)-4-aminocyclohexane-1-carbonyl)pyrrolidin-3-yl)-5-cyclopropyl-isoxazole-3-carboxamide], the IC50 is 3.25 µM.

`C[C@@H]1C[C@H](NC(=O)c2cc(C3CC3)on2)C(=O)N1c1cnn(C)c1` (racemic) [compound 19, (±)-cis-5-cyclopropyl-N-(5-methyl-1-(1-methyl-1H-pyrazol-4-yl)-2-oxopyrrolidin-3-yl)isoxazole-3-carboxamide]: the IC50 is over 200 µM. Next, `CN1C(=O)CC(NC(=O)c2cc(C3CC3)on2)C1c1ccc(F)cc1` (centres unmarked) [compound 14, 5-cyclopropyl-N-(2-(4-fluorophenyl)-1-methyl-5-oxopyrrolidin-3-yl)isoxazole-3-carboxamide]: 58.5 µM; `O=C(NC1CCN(Cc2ccccc2)C1=O)c1cc(C2CC2)on1` (centres unmarked) [compound 27, N-(1-benzyl-2-oxopyrrolidin-3-yl)-5-cyclopropylisoxazole-3-carboxamide]: over 200 µM. For `CN1CCC(NC(=O)c2cc(C3CC3)on2)C1c1ccc(Cl)c(F)c1` (centres unmarked) [compound 7, N-(2-(4-chloro-3-fluorophenyl)-1-methylpyrrolidin-3-yl)-5-cyclo-propylisoxazole-3-carboxamide], the IC50 worked out at 51.5 µM. `CC(c1ccccc1)N1CCC(NC(=O)c2cc(C3CC3)on2)C1` (centres unmarked) [compound 24, 5-cyclopropyl-N-(1-(1-phenylethyl)pyrrolidin-3-yl)isoxazole-3-carboxamide]: the IC50 was 38.4 µM. On to `Cn1ccc(N2CCC(NC(=O)c3cc(C4CC4)on3)C2=O)n1` (centres unmarked) [compound 15, 5-cyclopropyl-N-(1-(1-methyl-1H-pyrazol-3-yl)-2-oxopyrrolidin-3-yl)isoxazole-3-carboxamide], for which the IC50 is 158 µM. Next, `O=C(NC1CC(=O)N(c2ccccc2)C1)c1cc(C2CC2)on1` (centres unmarked) [compound 25, 5-cyclopropyl-N-(5-oxo-1-phenylpyrrolidin-3-yl)isoxazole-3-carboxamide]: 98.8 µM; `CC1CC(NC(=O)c2cc(C3CC3)on2)CN1Cc1ccccc1` (centres unmarked) [compound 21, N-(1-benzyl-5-methylpyrrolidin-3-yl)-5-cyclopropyl-isoxazole-3-carboxamide]: 54.1 µM. As for `CC1CC(NC(=O)c2cc(C3CC3)on2)CN1C1CC1` (centres unmarked) [compound 22, 5-cyclopropyl-N-(1-cyclopropyl-5-methylpyrrolidin-3-yl)isoxazole-3-carboxamide], the figure is 47.1 µM; as for `O=C(N[C@@H]1CCNC1)c1cc(C2CC2)on1` [compound 4, (R)-5-cyclopropyl-N-(pyrrolidin-3-yl)isoxazole-3-carboxamide], 83.7 µM; as for `CC(C)N1CCC(NC(=O)c2cc(C3CC3)on2)C1c1ccc(F)c(F)c1` (centres unmarked) [compound 12, 5-cyclopropyl-N-(2-(3,4-difluorophenyl)-1-isopropylpyrrolidin-3-yl)isoxazole-3-carboxamide], 58.6 µM. As to `CC1CC(NC(=O)c2cc(C3CC3)on2)CN1c1ccccc1` (centres unmarked) [compound 10, 5-cyclopropyl-N-(5-methyl-1-phenylpyrrolidin-3-yl)isoxazole-3-carboxamide], the IC50 stood at 53.5 µM. Turning to `NCCCC(=O)N1CC[C@H](NC(=O)c2cc(C3CC3)on2)C1` [compound 32, (S)-N-(1-(4-amino-butanoyl)pyrrolidin-3-yl)-5-cyclopropyl-isoxazole-3-carboxamide], the IC50 is over 10 µM. As for `CC(=O)Nc1ccc(S(=O)(=O)N2CC[C@H](NC(=O)c3cc(C4CC4)on3)C2)cc1` [compound 1, (S)-N-(1-((4-acetamido-phenyl)sulfonyl)pyrrolidin-3-yl)-5-cyclopropyl-isoxazole-3-carboxamide], the figure is over 100 µM; as for `O=C(NC1CC(=O)N(Cc2ccccc2)C1)c1cc(C2CC2)on1` (centres unmarked) [compound 26, N-(1-benzyl-5-oxopyrrolidin-3-yl)-5-cyclopropylisoxazole-3-carboxamide], 88.4 µM. Next, `O=C(NC1CCN(c2ccccc2)C1=O)c1cc(C2CC2)on1` (centres unmarked) [compound 28, 5-cyclopropyl-N-(2-oxo-1-phenyl-pyrrolidin-3-yl)isoxazole-3-carboxamide]: 94.2 µM.

These data come from patent US20170253601A1, “Substituted Pyrrolidine Compounds” (EPIZYME, INC., priority 2014, published 2017).
